Laboratory results reported in article PMC8854719, “Phase 1A/1B dose-escalation and -expansion study to evaluate the safety, pharmacokinetics, food effects and antitumor activity of pamiparib in advanced solid tumours” (British Journal of Cancer, 2021).

System: epithelial ovarian cancer (EOC)
Experiment: Tumour response and PFS per RECIST v1.1, EOC efficacy-evaluable population
Assay type: in vivo, human
Description: Tumour response was evaluated by RECIST v1.1. For patients with ovarian cancer, tumour response was assessed per RECIST v1.1 and by Gynecologic Cancer Intergroup (GCIG) CA-125 criteria. Tumour response for patients with prostate cancer was assessed by Prostate Cancer Clinical Trials Working Group 2 (PCWG2) criteria. Objective response rate (ORR) was defined as the proportion of patients achieving a confirmed complete response (CR) or partial response (PR) on study treatment. Blood tumour antigens (e.g., carcinoembryonic antigen for colorectal cancer, CA-125 for ovarian cancer and prostate-specific antigen [PSA] for mCRPC) were assessed during screening, every 6 weeks after the first pamiparib dose in the first 12 months, and every 9 weeks thereafter.
Analyses of ORR (95% confidence interval [CI]) by investigator assessment were performed using predefined subgroups of the EOC population, including age group (<65 years versus ≥65 years), baseline ECOG performance status (0 versus 1), solid tumour stage (Stage III versus IV), BRCA/HRD status (germline BRCA mutation versus wild-type or unknown; germline or somatic BRCA mutation versus wild-type or unknown; HRD-positive versus negative or unknown), and platinum response status (platinum-sensitive versus platinum-resistant versus platinum-refractory).
The safety population comprised all patients in the dose-escalation and dose-expansion phases who received at least one dose of pamiparib (Supplementary Table S2). Patients in the safety analysis set for whom valid pamiparib PK parameters were estimated and for whom evaluable PD results were available represented the PK population and the PD population, respectively. The efficacy-evaluable population included patients in the safety analysis set who had at least one evaluable postbaseline tumour assessment or those who discontinued due to clinical disease progression or early death before tumour assessment could be performed. The EOC efficacy-evaluable population was a subset of the overall efficacy-evaluable population that included patients with EOC from both the dose-escalation and dose-expansion phases. Patients in the dose-expansion phase without measurable disease at baseline per RECIST v1.1 were excluded from the efficacy-evaluable population.
Descriptive statistics were used to summarise all study data (see Supplemental Appendix). Progression-free survival (PFS) and event-free rates were estimated using the Kaplan–Meier method along with the corresponding 95% CI. Pharmacokinetic parameters were derived using standard non-compartmental methods with Phoenix WinNonlin Version 6.4 or higher (Pharsight Corp., Mountain View, California).

[1] = EOC evaluable for efficacy (N=60)
[2] = EOC, Total BID Dosage Group (n=51)

C[C@]12CCCN1CC1=NNC(=O)c3cc(F)cc4[nH]c2c1c34 [pamiparib]
CR [1]: 6.7% | PR [1]: 31.7% | Event-free rate, 1 year (EOC, Total (N=60)): 41.0 (26.93-54.59) % (95% CI) | Event-free rate, 2 years (EOC, Total (N=60)): 14.8 (5.46-28.41) % (95% CI) | ORR, subgroup Age <65 (EOC, Total (N=60)): 39.5 (24.98-55.59) [43/60] % (95% CI) | ORR, subgroup Age ≥65 (EOC, Total (N=60)): 35.3 (14.21-61.67) [17/60] % (95% CI) | ORR, subgroup Baseline ECOG performance status 0 (EOC, Total (N=60)): 45.8 (25.55-67.18) [24/60] % (95% CI) | ORR, subgroup Baseline ECOG performance status ≥1 (EOC, Total (N=60)): 33.3 (18.56-50.97) [36/60] % (95% CI) | ORR, subgroup Germline BRCA status Mutant (EOC, Total (N=60)): 66.7 (40.99-86.66) [18/60] % (95% CI) | ORR, subgroup Germline BRCA status Wild-type/Unknown (EOC, Total (N=60)): 26.2 (13.86-42.04) [42/60] % (95% CI) | ORR, subgroup Germline or somatic BRCA status Mutant (EOC, Total (N=60)): 61.3 (42.19-78.15) [31/60] % (95% CI) | ORR, subgroup Germline or somatic BRCA status Wild-type/Unknown (EOC, Total (N=60)): 13.8 (3.89-31.66) [29/60] % (95% CI) | ORR, subgroup HRD status Negative/Unknown (EOC, Total (N=60)): 15.4 (4.36-34.87) [26/60] % (95% CI) | ORR, subgroup HRD status Positive (EOC, Total (N=60)): 55.9 (37.89-72.81) [34/60] % (95% CI) | ORR, subgroup Platinum-sensitivity status Refractory (EOC, Total (N=60)): 8.3 (0.21-38.48) [12/60] % (95% CI) | ORR, subgroup Platinum-sensitivity status Resistant (EOC, Total (N=60)): 16.7 (4.74-37.38) [24/60] % (95% CI) | ORR, subgroup Platinum-sensitivity status Sensitive (EOC, Total (N=60)): 75.0 (53.29-90.23) [24/60] % (95% CI) | ORR, subgroup Solid tumor stage 3 (EOC, Total (N=60)): 45.5 (28.11-63.65) [33/60] % (95% CI) | ORR, subgroup Solid tumor stage 4 (EOC, Total (N=60)): 26.1 (10.23-48.41) [23/60] % (95% CI) | PFS censored: No disease progression or death (EOC, Total (N=60)): 17 (28.3) n (%) | PFS censored: No postbaseline assessment (EOC, Total (N=60)): 2 (3.3) n (%) | PFS censored: ≥2 consecutive missed assessments (EOC, Total (N=60)): 2 (3.3) n (%) | PFS events: Death (EOC, Total (N=60)): 9 (15.0) n (%) | PFS events: Disease progression (EOC, Total (N=60)): 30 (50.0) n (%) | PFS: Censored (EOC, Total (N=60)): 21 (35.0) n (%) | PFS: Events (EOC, Total (N=60)): 39 (65.0) n (%) | Progression-Free Survival, Median (EOC, Total (N=60)): 8.3 (5.45-13.67) months (95% CI) | Event-free rate, 1 year [2]: 45.6 (29.51-60.25) % (95% CI) | Event-free rate, 2 years [2]: 16.4 (5.98-31.33) % (95% CI) | ORR, subgroup Age <65 [2]: 42.1 (26.31-59.18) [38/51] % (95% CI) | ORR, subgroup Age ≥65 [2]: 38.5 (13.86-68.42) [13/51] % (95% CI) | ORR, subgroup Baseline ECOG performance status 0 [2]: 47.8 (26.82-69.41) [23/51] % (95% CI) | ORR, subgroup Baseline ECOG performance status ≥1 [2]: 35.7 (18.64-55.93) [28/51] % (95% CI) | ORR, subgroup Germline BRCA status Mutant [2]: 73.3 (44.90-92.21) [15/51] % (95% CI) | ORR, subgroup Germline BRCA status Wild-type/Unknown [2]: 27.8 (14.20-45.19) [36/51] % (95% CI) | ORR, subgroup Germline or somatic BRCA status Mutant [2]: 64.3 (44.07-81.36) [28/51] % (95% CI) | ORR, subgroup Germline or somatic BRCA status Wild-type/Unknown [2]: 13.0 (2.78-33.59) [23/51] % (95% CI) | ORR, subgroup HRD status Negative/Unknown [2]: 14.3 (3.05-36.34) [21/51] % (95% CI) | ORR, subgroup HRD status Positive [2]: 60.0 (40.60-77.34) [30/51] % (95% CI) | ORR, subgroup Platinum-sensitivity status Refractory [2]: 9.1 (0.23-41.28) [11/51] % (95% CI) | ORR, subgroup Platinum-sensitivity status Resistant [2]: 21.1 (6.05-45.57) [19/51] % (95% CI) | ORR, subgroup Platinum-sensitivity status Sensitive [2]: 76.2 (52.83-91.78) [21/51] % (95% CI) | ORR, subgroup Solid tumor stage 3 [2]: 53.6 (33.87-72.49) [28/51] % (95% CI) | ORR, subgroup Solid tumor stage 4 [2]: 23.8 (8.22-47.17) [21/51] % (95% CI) | PFS censored: No disease progression or death [2]: 15 (29.4) n (%) | PFS censored: No postbaseline assessment [2]: 2 (3.9) n (%) | PFS censored: ≥2 consecutive missed assessments [2]: 2 (3.9) n (%) | PFS events: Death [2]: 6 (11.8) n (%) | PFS events: Disease progression [2]: 26 (51.0) n (%) | PFS: Censored [2]: 19 (37.3) n (%) | PFS: Events [2]: 32 (62.7) n (%) | Progression-Free Survival, Median [2]: 9.9 (5.49-14.62) months (95% CI) | Best overall response: Complete response (EOC, Total BID and QD (N=60)): 4 (6.7) n (%) | Best overall response: Not assessed (EOC, Total BID and QD (N=60)): 3 (5.0) n (%)
